Measured values published in patent publication US20020137929A1, “1 - (3-heterocyclylphenyl) isothiourea, -isourea, -guanidine and -amidine herbicidal agents” (Intellectual Property Department, BASF Aktiengesellschaft, priority 1998, published 2002).

Key:
ZEAMX (Corn, Field) = experiment: Postemergence herbicidal evaluation; format: in vivo, Zea mays; conditions: postemergence
Summary of the method: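 Each compound, dispersed in an acetone/water mix (50/50) carrying 0.5% TWEEN 20, is nozzle-sprayed at 40 psi on approximately two-week-old seedlings at about 0.0156–0.500 kg/ha. Plants are assessed 4–5 weeks afterward on a 0–9 scale relative to control; duplicate tests are averaged.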

ABUTH (Velvetleaf) = experiment: Preemergence herbicidal evaluation; format: in vivo, Abutilon theophrasti; conditions: rated 4-5 weeks after treatment; for ABUTH rating: preemergence, 0-9 scale
Summary of the method: (§1)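 Sown cups got a single aqueous acetone spray of test compound (roughly 0.0156–0.500 kg/ha) before seedlings emerged. Evaluation, 4–5 weeks on, used a 0–9 visual scale covering plant stand, vigor, size, malformation, chlorosis and general appearance compared with controls.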

AMBEL (Ragweed, Common) = experiment: Preemergence herbicidal evaluation; format: in vivo, Ambrosia artemisifolia; conditions: rated 4-5 weeks after treatment; for AMBEL rating: preemergence, 0-9 scale
Summary of the method: as §1

[1] = test system: GLXMAW (Soybean, Williams); experiment: Preemergence herbicidal evaluation; format: in vivo, Glycine max, (L.) Merr. cv Williams; conditions: rated 4-5 weeks after treatment; for GLXMAW rating: preemergence, 0-9 scale
Summary of the method: as §1

MOOVA (Monochoria) = experiment: Postemergence weed control under flooded paddy conditions; format: in vivo, Monochoria vaginalis; conditions: postemergence weeds, rated 3 to 4 weeks after treatment
Summary of the method: (§2)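 Injury ratings (0–9 scale covering stand, vigor, malformation, size, chlorosis and overall appearance versus control) were made three to four weeks after treatment. Test material, about 0.0313 to 0.500 kg/ha a.i. in 50/50 v/v aqueous/acetone, was added to flood water 1.5 to 3 cm deep over 3 to 5 cm weeds and 1.5 to 2.5 leaf rice.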

[2] = test system: SAGPY (Arrowhead (Pygmaea)); experiment: as above; format: in vivo, Sagittaria pygmaea; conditions: postemergence weeds, rated 3 to 4 weeks after treatment
Summary of the method: as §2

Compound	ABUTH rating (ABUTH (Velvetleaf); 0.0625 kg/ha)	ABUTH rating (ABUTH (Velvetleaf); 0.1250 kg/ha)	ABUTH rating (ABUTH (Velvetleaf); 0.2500 kg/ha)	AMBEL rating (AMBEL (Ragweed, Common); 0.0625 kg/ha)	AMBEL rating (AMBEL (Ragweed, Common); 0.1250 kg/ha)	AMBEL rating (AMBEL (Ragweed, Common); 0.2500 kg/ha)	GLXMAW rating ([1]; 0.0625 kg/ha)	GLXMAW rating ([1]; 0.1250 kg/ha)	GLXMAW rating ([1]; 0.2500 kg/ha)	Herbicidal rating MOOVA (MOOVA (Monochoria); Rate 0.0313 kg/ha)	Herbicidal rating MOOVA (MOOVA (Monochoria); Rate 0.0625 kg/ha)	Herbicidal rating MOOVA (MOOVA (Monochoria); Rate 0.1250 kg/ha)	Herbicidal rating MOOVA (MOOVA (Monochoria); Rate 0.2500 kg/ha)	Herbicidal rating SAGPY ([2]; Rate 0.0313 kg/ha)	Herbicidal rating SAGPY ([2]; Rate 0.0625 kg/ha)	Herbicidal rating SAGPY ([2]; Rate 0.1250 kg/ha)	Herbicidal rating SAGPY ([2]; Rate 0.2500 kg/ha)	Herbicidal rating ZEAMX (ZEAMX (Corn, Field); rate 0.0156 kg/ha)	Herbicidal rating ZEAMX (ZEAMX (Corn, Field); rate 0.0313 kg/ha)	Herbicidal rating ZEAMX (ZEAMX (Corn, Field); rate 0.0625 kg/ha)	also measured
C#CCOC(=O)CC1SC(=Nc2cc(-n3c(=O)cc(C(F)(F)F)n(C)c3=O)c(F)cc2Cl)N(C)C1=O (centres unmarked) [Compound 90, 2-Propynyl 2-{{2-chloro-5-[3,6-dihydro-3-methyl-2,6-dioxo-4-(trifluoromethyl)-1(2H)-pyrimidinyl]-4-fluorophenyl}imino}-3-methyl-4-oxo-5-thiazolidineacetate]	9.0	9.0	9.0	3.0	9.0	9.0	2.0	7.0	9.0	9.0	9.0	9.0	9.0	4.0	6.0	9.0	9.0				ZEAMX herbicidal rating (ZEAMX (Corn, Field); rate 0.0158 kg/ha): 8.0; ZEAMX herbicidal rating (ZEAMX (Corn, Field); rate 0.0315 kg/ha): 8.5; ZEAMX herbicidal rating (ZEAMX (Corn, Field); rate 0.0630 kg/ha): 9.0; ABUTH rating (ABUTH (Velvetleaf); 0.0313 kg/ha): 9.0; AMBEL rating (AMBEL (Ragweed, Common); 0.0313 kg/ha): 0.0; GLXMAW rating ([1]; 0.0313 kg/ha): 0.0
CN1C(=O)C(CC(=O)Nc2ccccc2)SC1=Nc1cc(-n2c(=O)cc(C(F)(F)F)n(C)c2=O)c(F)cc1Cl (centres unmarked) [Compound 91, 2-{{2-Chloro-5-[3,6-dihydro-3-methyl-2,6-dioxo-4-(trifluoromethyl)-1(2H)-pyrimidinyl]-4-fluorophenyl}imino}-3-methyl-4-oxo-5-thiazolidineacetanilide]		4.0	9.0		0.0	0.0		0.0	0.0	9.0	9.0	9.0	9.0	0.0	0.0	0.0	0.0				ZEAMX herbicidal rating (ZEAMX (Corn, Field); rate 0.0158 kg/ha): 4.0; ZEAMX herbicidal rating (ZEAMX (Corn, Field); rate 0.0315 kg/ha): 4.0; ZEAMX herbicidal rating (ZEAMX (Corn, Field); rate 0.0630 kg/ha): 5.0
CN1C(=O)C(CC(=O)NS(=O)(=O)c2ccccc2)SC1=Nc1cc(-n2c(=O)cc(C(F)(F)F)n(C)c2=O)c(F)cc1Cl (centres unmarked) [Compound 102, 2-{{2-Chloro-5-[3,6-dihydro-3-methyl-2,6-dioxo-4-(trifluoromethyl)-1(2H)-pyrimidinyl]-4-fluorophenyl}imino}-3-methyl-4-oxo-N-(phenylsulfonyl)-5-thiazolidineacetamide]	9.0		6.0	0.0		4.0	0.0		1.0				0.0				0.0	4.5	5.0	5.5	Herbicidal rating ZEAMX (ZEAMX (Corn, Field); rate 0.1250 kg/ha): 6.5; ABUTH rating (ABUTH (Velvetleaf); 0.0156 kg/ha): 0.0; ABUTH rating (ABUTH (Velvetleaf); 0.0313 kg/ha): 0.0; ABUTH rating (ABUTH (Velvetleaf); 0.5000 kg/ha): 9.0; AMBEL rating (AMBEL (Ragweed, Common); 0.0156 kg/ha): 0.0; AMBEL rating (AMBEL (Ragweed, Common); 0.0313 kg/ha): 0.0; AMBEL rating (AMBEL (Ragweed, Common); 0.5000 kg/ha): 7.0; GLXMAW rating ([1]; 0.0156 kg/ha): 0.0; GLXMAW rating ([1]; 0.0313 kg/ha): 0.0; GLXMAW rating ([1]; 0.5000 kg/ha): 4.0; Herbicidal rating MOOVA (MOOVA (Monochoria); Rate 0.5000 kg/ha): 4.0; Herbicidal rating SAGPY ([2]; Rate 0.5000 kg/ha): 0.0
C=CCN1C(=O)C(CC(=O)NS(=O)(=O)CC)SC1=Nc1cc(-n2c(=O)cc(C(F)(F)F)n(C)c2=O)c(F)cc1Cl (centres unmarked) [Compound 104, 3-Allyl-2-{{2-chloro-5-[3,6-dihydro-3-methyl-2,6-dioxo-4-(trifluoromethyl)-1(2H)-pyrimidinyl]-4-fluorophenyl}imino}-N-(ethylsulfonyl)-4-oxo-5-thiazolidineacetamide]	3.0	8.0	9.0	0.0	0.0	3.0	0.0	0.0	0.0	7.0	9.0	9.0	9.0	6.0	9.0	9.0	9.0	4.5	4.5	6.0	Herbicidal rating ZEAMX (ZEAMX (Corn, Field); rate 0.1250 kg/ha): 8.0; ABUTH rating (ABUTH (Velvetleaf); 0.5000 kg/ha): 9.0; AMBEL rating (AMBEL (Ragweed, Common); 0.5000 kg/ha): 9.0; GLXMAW rating ([1]; 0.5000 kg/ha): 3.0
CC(C)S(=O)(=O)NC(=O)CC1SC(=Nc2cc(-n3c(=O)cc(C(F)(F)F)n(C)c3=O)c(F)cc2Cl)N(C)C1=O (centres unmarked) [Compound 119, 2-{{2-Chloro-5-[3,6-dihydro-3-methyl-2,6-dioxo-4-(trifluoromethyl)-1(2H)-pyrimidinyl]-4-fluorophenyl}imino}-N-(isopropylsulfonyl)-3-methyl-4-oxo-5-thiazolidineacetamide]										4.0	7.0	8.0	9.0	0.0	0.0	0.0	0.0	4.5	5.5	6.0	Preemergence herbicidal rating ABUTH (ABUTH (Velvetleaf); rate 0.0156 kg/ha): 0.0; Preemergence herbicidal rating ABUTH (ABUTH (Velvetleaf); rate 0.0313 kg/ha): 3.0; Preemergence herbicidal rating ABUTH (ABUTH (Velvetleaf); rate 0.0625 kg/ha): 4.0; Preemergence herbicidal rating ABUTH (ABUTH (Velvetleaf); rate 0.1250 kg/ha): 9.0; Preemergence herbicidal rating ABUTH (ABUTH (Velvetleaf); rate 0.2500 kg/ha): 9.0; Preemergence herbicidal rating AMBEL (AMBEL (Ragweed, Common); rate 0.0156 kg/ha): 0.0; Preemergence herbicidal rating AMBEL (AMBEL (Ragweed, Common); rate 0.0313 kg/ha): 0.0; Preemergence herbicidal rating AMBEL (AMBEL (Ragweed, Common); rate 0.0625 kg/ha): 0.0; Preemergence herbicidal rating AMBEL (AMBEL (Ragweed, Common); rate 0.1250 kg/ha): 4.0; Preemergence herbicidal rating AMBEL (AMBEL (Ragweed, Common); rate 0.2500 kg/ha): 4.0; Preemergence herbicidal rating GLXMAW ([1]; rate 0.0156 kg/ha): 0.0; Preemergence herbicidal rating GLXMAW ([1]; rate 0.0313 kg/ha): 0.0; Preemergence herbicidal rating GLXMAW ([1]; rate 0.0625 kg/ha): 0.0; Preemergence herbicidal rating GLXMAW ([1]; rate 0.1250 kg/ha): 1.0; Preemergence herbicidal rating GLXMAW ([1]; rate 0.2500 kg/ha): 2.0
